In patent publication US5622962A, “5α-reductase inhibitors” (priority 1995, dated 1997):

What was measured:
[1] = target: T1, Type I 5α-Reductase from Human Scalp (Homo sapiens, UniProt P18405); test: Human Type I 5α-reductase assay (conversion of [3H]-testosterone to 5α-reduced metabolites); assay type: biochemical; conditions: 50 nM [3H]-testosterone, pH 7.5, 25°, 180 min, compared to control reaction mixtures; for inhibition at 0.3 µM: pH 7.5, 0.3 μM, read-out: percent inhibition of Type I AR
T1 construct: Scalp punch biopsies from graft recipient sites were obtained from human hair transplant procedures; from tissue; host or cells: human scalp punch biopsies (hair transplant graft recipient sites), homogenate, 100,000×g pellet
T1 sequence (P18405 1-259): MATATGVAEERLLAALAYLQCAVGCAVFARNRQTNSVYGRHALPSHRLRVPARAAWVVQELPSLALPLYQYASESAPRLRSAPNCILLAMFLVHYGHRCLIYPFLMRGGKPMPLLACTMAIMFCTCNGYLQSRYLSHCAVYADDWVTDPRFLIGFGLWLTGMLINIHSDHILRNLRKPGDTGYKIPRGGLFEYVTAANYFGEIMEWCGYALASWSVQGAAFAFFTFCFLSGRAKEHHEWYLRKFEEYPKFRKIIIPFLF

[2] = target: T2, Type II 5α-Reductase from Human Prostate (Homo sapiens, UniProt P31213); test: Human Type II 5α-reductase assay (conversion of [3H]-testosterone to 5α-reduced metabolites); assay type: biochemical; conditions: sodium acetate pH 5.5, 25°, 30 min, compared to control reaction mixtures; for inhibition at 0.3 µM: pH 5.5, 0.3 μM, read-out: percent inhibition of Type II AR; for percent inhibition of Type II AR: 0.3 μM
T2 construct: The same procedure as above was used for preparations using tissue from prostate surgery; from tissue; host or cells: human prostate tissue from surgery, homogenate, 100,000×g pellet
T2 sequence (P31213 1-254): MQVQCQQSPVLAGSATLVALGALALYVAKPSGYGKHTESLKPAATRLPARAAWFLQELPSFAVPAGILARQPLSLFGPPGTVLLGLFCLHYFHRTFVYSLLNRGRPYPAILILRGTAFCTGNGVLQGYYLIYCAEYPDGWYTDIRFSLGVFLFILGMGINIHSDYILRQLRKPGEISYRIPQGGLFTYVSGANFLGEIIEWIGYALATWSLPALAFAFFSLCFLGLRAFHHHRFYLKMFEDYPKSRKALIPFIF

| Structure (SMILES) | inhibition at 0.3 µM [1] [%] | inhibition at 0.3 µM [2] [%] | percent inhibition of Type II AR [2] [%] | percent inhibition of Type I AR ([1]; 0.3 μM) [%] |
| --- | --- | --- | --- | --- |
| CN1C(=O)CC[C@]2(C)c3ccc(Sc4nsc5ccccc45)cc3CC[C@@H]12 [Example 180, (+)-(4aR)-(10bR)-4-methyl-8-(3-[1,2-benzisothiazolyl]thio)-10b-methyl-1,2,3,4,4a,5,6,10b-octahydrobenzo[f]quinolin-3-one] | 59 | 30 |  |  |
| CN1C(=O)CC[C@]2(C)c3ccc(Sc4cc(-c5ccccc5)cc(-c5ccccc5)n4)cc3CC[C@@H]12 [Example 181, (+)-(4aR)-(10bR)-4-methyl-8-(2-[4,6-diphenyl]pyridylthio)-10b-methyl-1,2,3,4,4a,5,6,10b-octahydrobenzo[f]quinolin-3-one] | 63 | 31 |  |  |
| COc1cccc2sc(Sc3ccc4c(c3)CC[C@H]3N(C)C(=O)CC[C@]43C)nc12 [Example 182, (+)-(4aR)-(10bR)-4-methyl-8-(4-methoxy-2-benzothiazolylthio)-10b-methyl-1,2,3,4,4a,5,6,10b-octahydrobenzo[f]quinolin-3-one] | 63 | 100 |  |  |
| CN1C(=O)CC[C@]2(C)c3ccc(Sc4nc5c(Br)cccc5s4)cc3CC[C@@H]12 [Example 183, (+)-(4aR)-(10bR)-4-methyl-8-(4-bromo-2-benzothiazolylthio)-10b-methyl-1,2,3,4,4a,5,6,10b-octahydrobenzo[f]quinolin-3-one] | 89 | 88 | 87 |  |
| CN1C(=O)CC[C@]2(C)c3ccc(Sc4nc5c(-c6ccccc6)cccc5s4)cc3CC[C@@H]12 [Example 184, (+)-(4aR)-(10bR)-4-methyl-8-(4-phenyl-2-benzothiazolylthio)-10b-methyl-1,2,3,4,4a,5,6,10b-octahydrobenzo[f]quinolin-3-one] | 73 | 81 |  |  |
| Cc1ccc(C)c2sc(Sc3ccc4c(c3)CC[C@H]3N(C)C(=O)CC[C@]43C)nc12 [Example 185, (+)-(4aR)-(10bR)-4-methyl-8-(4,7-dimethyl-2-benzothiazolylthio)-10b-methyl-1,2,3,4,4a,5,6,10b-octahydrobenzo[f]-quinolin-3-one] | 88 | 90 |  |  |
| CCCc1cccc2sc(Sc3ccc4c(c3)CC[C@H]3N(C)C(=O)CC[C@]43C)nc12 [Example 186, (+)-(4aR)-(10bR)-4-methyl-8-(4-propyl-2-benzothiazolylthio)-10b-methyl-1,2,3,4,4a,5,6,10b-octahydrobenzo[f]quinolin-3-one] | 90 | 79 |  |  |
| CCc1cccc2sc(Sc3ccc4c(c3)CC[C@H]3N(C)C(=O)CC[C@]43C)nc12 [Example 187, (+)-(4aR)-(10bR)-4-methyl-8-(4-ethyl-2-benzothiazolylthio)-10b-methyl-1,2,3,4,4a,5,6,10b-octahydrobenzo[f]quinolin-3-one] | 93 | 94 |  |  |
| CN1C(=O)CC[C@]2(C)c3ccc(Sc4nc5c(OC(F)(F)F)cccc5s4)cc3CC[C@@H]12 [Example 188, (+)-(4aR)-(10bR)-4-methyl-8-(4-trifluoromethoxy-2-benzothiazolylthio)-10b-methyl-1,2,3,4,4a,5,6,10b-octahydrobenzo[f]-quinolin-3-one] | 88 | 78 |  |  |
| CN1C(=O)CC[C@]2(C)c3ccc(Sc4nc5c(C(C)(C)C)ccc(C(C)(C)C)c5s4)cc3CC[C@@H]12 [Example 189, (+)-(4aR)-(10bR)-4-methyl-8-[4,7-di(t-butyl)-2-benzothiazolylthio]-10b-methyl-1,2,3,4,4a,5,6,10b-octahydrobenzo[f]-quinolin-3-one] | 84 | 19 |  |  |
| Cc1ccc(C(F)(F)F)c2sc(Sc3ccc4c(c3)CC[C@H]3N(C)C(=O)CC[C@]43C)nc12 [Example 190, (+)-(4aR)-(10bR)-4-methyl-8-(4-methyl-7-trifluoromethyl-2-benzothiazolylthio)-10b-methyl-1,2,3,4,4a,5,6,10b-octahydrobenzo[f]quinolin-3-one] | 76 | 26 |  |  |
| CN1C(=O)CC[C@]2(C)c3ccc(SCc4cc5ccccc5cn4)cc3CC[C@@H]12 [Example 191, (+)-(4aR)-(10bR)-8-(3-isoquinolinylmethylthio)-4,10b-dimethyl-1,2,3,4,4a,5,6,10b-octahydrobenzo[f]quinoline-3-one] | 65 | 19 | 28 |  |
| CN1C(=O)CC[C@]2(C)c3ccc(SCc4nc5ccccc5s4)cc3CC[C@@H]12 [Example 192, (+)-(4aR)-(10bR)-8-(2-benzothiazolylmethylthio)-4,10b-dimethyl-1,2,3,4,4a,5,6,10b-octahydrobenzo[f]quinoline-3-one] | 80 | 33 |  |  |
| CN1C(=O)CC[C@]2(C)c3ccc(SC(c4ccccc4)c4ccccc4)cc3CC[C@@H]12 [Example 195, (4aR)-(10bR)-8-diphenylmethylthio-4,10b-dimethyl-1,2,3,4,4a,5,6,10b-octahydrobenzo[f]-quinoline-3-one] | 90 | 71 |  |  |
| CN1C(=O)CC[C@]2(C)c3ccc(-c4cncc5ccccc45)cc3CC[C@@H]12 [Example 200, (+)-(4aR)-(10bR)-4-methyl-8-(4-isoquinolinyl)-10b-methyl-1,2,3,4,4a,5,6,10b-octahydrobenzo [f]quinolin-3-one] | 59 | 72 | 64 |  |
| CN1C(=O)CC[C@]2(C)c3ccc(-c4cnc5ccccc5c4)cc3CC[C@@H]12 [Example 201, (+)-(4aR)-(10bR)-4-methyl-8-(3-quinolinyl)-10b-methyl-1,2,3,4,4a,5,6,10b-octahydrobenzo[f]quinolin-3-one] | 69 | 60 | 57 |  |
| CN1C(=O)CC[C@]2(C)c3ccc(-c4ccc([N+](=O)[O-])cn4)cc3CC[C@@H]12 [Example 202, (+)-(4aR)-(10bR)-4-methyl-8-(5-nitro-2-pyridinyl)-10b-methyl-1,2,3,4,4a,5,6,10b-octahydrobenzo[f]quinolin-3-one] | 41 | 48 |  |  |
| CN1C(=O)CC[C@]2(C)c3ccc(-c4cc(C(F)(F)F)nc5c(C(F)(F)F)cccc45)cc3CC[C@@H]12 [Example 203, (+)-(4aR)-(10bR)-4-methyl-8-[2,8-bis(trifluoromethyl)-4-quinolinyl]-10b-methyl-1,2,3,4,4a,5,6,10b-octahydrobenzo[f]-quinolin-3-one] | 8 | 34 |  |  |
| CN1C(=O)CC[C@]2(C)c3ccc(-c4ccc(S(C)(=O)=O)cc4)cc3CC[C@@H]12 [Example 204, (+)-(4aR)-(10bR)-4-methyl-8-(4-methylsulfonylphenyl)-10b-methyl-1,2,3,4,4a,5,6,10b-octahydrobenzo[f]quinolin-3-one] | 34 | 39 |  |  |
| CN1C(=O)CC[C@]2(C)c3ccc(-c4c(F)c(F)c(F)c(F)c4F)cc3CC[C@@H]12 [Example 205, (+)-(4aR)-(10bR)-4-methyl-8-(2,3,4,5,6-pentafluorophenyl)-10b-methyl-1,2,3,4,4a,5,6,10b-octahydrobenzo[f]quinolin-3-one] | 100 | 37 |  |  |
| CN1C(=O)CC[C@]2(C)c3ccc(-c4cc(F)c(F)c(F)c4)cc3CC[C@@H]12 [Example 206, (+)-(4aR)-(10bR)-4-methyl-8-(3,4,5-trifluorophenyl)-10b-methyl-1,2,3,4,4a,5,6,10b-octahydrobenzo[f]quinolin-3-one] | 97 | 32 |  | 100 |
| CN1C(=O)CC[C@]2(C)c3ccc(-c4ccc5c(c4)CCC5=O)cc3CC[C@@H]12 [Example 207, (+)-(4aR)-(10bR)-4-methyl-8-(1-oxo-5-indanyl)-10b-methyl-1,2,3,4,4a,5,6,10b-octahydrobenzo[f]quinolin-3-one] | 45 | 16 |  |  |
| CN1C(=O)CC[C@]2(C)c3ccc(-c4cccc(C(F)(F)F)c4F)cc3CC[C@@H]12 [Example 208, (+)-(4aR)-(10bR)-4-methyl-8-(2-fluoro-3-trifluoromethyl-phenyl)-10b-methyl-1,2,3,4,4a,5,6,10b-octahydrobenzo[f]-quinolin-3-one] | 77 | 10 |  |  |
| CN1C(=O)CC[C@]2(C)c3ccc(-c4cccc(C(=O)NC5CCN(Cc6ccccc6)CC5)c4)cc3CC[C@@H]12 [Example 209, (+)-(4aR)-(10bR)-4-methyl-8-(3-[1-benzyl-4-piperidinylcarboxamido]phenyl)-10b-methyl-1,2,3,4,4a,5,6,10b-octahydrobenzo[f]quinolin-3-one] | 24 | 11 |  |  |
